Test results reported in patent publication US20240181000A1, “LGG-DERIVED PEPTIDES AND METHODS OF USE THEREOF” (Ohio State Innovation Foundation, priority 2021, published 2024).
No end group written: not given here.

Columns and labels:
[1] = test system: Salmonella enterica subsp. enterica serovar Typhimurium LT2 (ST); test: Anti-Salmonella growth inhibition and MIC; format: cell-based; conditions: No treatment
Procedure: Primary screening for anti-Salmonella activity of peptides: The inhibitory effect of the peptides was accessed as described previously. ST was grown overnight and adjusted to 5×10^5 CFU/mL; 100 microliters of this measured concentration was placed into the wells of a 96 well plate. Peptides 1-6 were added to the well at 12 mM concentration and plate was incubated in a TECAN Sunrise™ absorbance microplate reader at 37° C. with kinetic absorbance measurements taken every 30 minutes for 12 h. The growth inhibitory activity was calculated with the formula (OD600 DMSO treated well-OD600 peptide treated well)/OD600 DMSO treated well×100%. DMSO treated, Salmonella challenged wells and sterile media with no Salmonella challenge were used as controls. This experiment was done twice to ensure the accuracy and reproducibility of the results.
MIC was determined by selecting peptide concentration at which there is no increased growth (no increase in OD), given indication of no ST growth. An independent repeat experiment was conducted.
Heat and protease tolerance of peptides: P1, P2, and P4 were heated for 6 minutes at 86° C. or treated with protease proteinase K, 200 μg/mL at 50° C. for 30 minutes. After which, the treated and/or heated peptides at their respective MICs were evaluated in the inhibition assay with Salmonella. The protocol from above was repeated in the Tecan with the same controls. […]

[2] = test system: commensal bacteria; test: Peptide activity against commensal bacteria; format: cell-based; conditions: at MICs
Procedure: Peptide activity against commensal bacteria: Peptides 1, 2, and 4 were used to assess if they would inhibit commensal microbes. The commensal bacteria used along with their culture requirements are described in Table 25. Peptides at their MICs were added to 100 μL of known concentration of commensal bacteria and incubated under their required conditions. OD600 of cultures was measured to assess the effect of peptides on bacterial growth.

[3] = test system: Biofilm embedded ST; test: MBEC Assay; format: cell-based, Salmonella enterica; conditions: at MICs; untreated 6.46 ± 0.09
Procedure: (§1) Peptides effect against biofilm embedded Salmonella: To analyze the ability of the peptides (P1, P2, and P4) to retain their inhibitory characteristics against biofilm protected Salmonella, Innovotech's MBEC Assay® (Innovotech Inc., AB, Canada) was conducted as previously detailed. Initially, 150 μL of 5×10^7 CFU/mL adjusted ST or SE suspension in LB media was aliquoted into the wells of MBEC inoculator plates containing polystyrene pegs and incubated for 36 h on a rocker platform at 37° C. to allow the biofilm formation. After biofilm formation, the pegs were washed to remove loosely adherent planktonic bacteria and transferred to a new 96-well plate containing peptides at MICs, with relevant controls, in 200 μL 25% LB media. The diluted LB media was used because it allows for slow bacterial growth to promote biofilm formation due to limited nutrients. The plate was incubated for 18 h at 37° C. with rotation at 150 rpm. Sterile media and DMSO were used as controls. Following incubation, the MICs of peptides in challenge plate were recorded. The pegs were transferred to new 96-well plate containing PBS and sonicated for 30 minutes to disrupt the biofilm. The sonicated suspensions were then ten-fold serially diluted and plated on LB agar plates to enumerate the biofilm protected bacteria and determine the minimum biofilm eradication concentration (MBEC) of peptides. Three independent experiments were conducted to ensure accuracy.

[4] = test system: Biofilm embedded SE; test: MBEC Assay; format: cell-based, Salmonella enterica; conditions: at MICs; untreated 6.77 ± 0.02
Procedure: as §1

Row | Substance | MIC against ST [1] | Growth of Bacteroides thetaiotaomicron [2] | Growth of E. coli Nissle 1917 and E. coli G58-1 [2] | Growth of Gram-positive commensal bacteria [2] | Biofilm embedded ST [3] | Biofilm embedded SE [4]
1 | MLNERVK [Peptide P4, MLNERVK] | 18 mM | no inhibition | inhibited | No growth inhibition | 0.00 ± 0.00 Log CFU/ml | 0.00 ± 0.00 Log CFU/mL
2 | PDENK [Peptide P2, PDENK] | 15 mM | no inhibition | inhibited | No growth inhibition | 0.00 ± 0.00 Log CFU/ml | 0.00 ± 0.00 Log CFU/mL
